In paper PMC7229206, “Split Intein-Mediated Protein Ligation for detecting protein-protein interactions and their inhibition” (Nature Communications, 2020):

Molecular target: T1, EGFR (Homo sapiens, UniProt P00533)
T1 construct: EGFR-IN; with SHC1
Experiment: SIMPL western blot of EGFR/SHC1 interaction in cells (indirect readout of EGFR kinase activity)
Type: cell-based

T1 sequence (P00533 25-1210): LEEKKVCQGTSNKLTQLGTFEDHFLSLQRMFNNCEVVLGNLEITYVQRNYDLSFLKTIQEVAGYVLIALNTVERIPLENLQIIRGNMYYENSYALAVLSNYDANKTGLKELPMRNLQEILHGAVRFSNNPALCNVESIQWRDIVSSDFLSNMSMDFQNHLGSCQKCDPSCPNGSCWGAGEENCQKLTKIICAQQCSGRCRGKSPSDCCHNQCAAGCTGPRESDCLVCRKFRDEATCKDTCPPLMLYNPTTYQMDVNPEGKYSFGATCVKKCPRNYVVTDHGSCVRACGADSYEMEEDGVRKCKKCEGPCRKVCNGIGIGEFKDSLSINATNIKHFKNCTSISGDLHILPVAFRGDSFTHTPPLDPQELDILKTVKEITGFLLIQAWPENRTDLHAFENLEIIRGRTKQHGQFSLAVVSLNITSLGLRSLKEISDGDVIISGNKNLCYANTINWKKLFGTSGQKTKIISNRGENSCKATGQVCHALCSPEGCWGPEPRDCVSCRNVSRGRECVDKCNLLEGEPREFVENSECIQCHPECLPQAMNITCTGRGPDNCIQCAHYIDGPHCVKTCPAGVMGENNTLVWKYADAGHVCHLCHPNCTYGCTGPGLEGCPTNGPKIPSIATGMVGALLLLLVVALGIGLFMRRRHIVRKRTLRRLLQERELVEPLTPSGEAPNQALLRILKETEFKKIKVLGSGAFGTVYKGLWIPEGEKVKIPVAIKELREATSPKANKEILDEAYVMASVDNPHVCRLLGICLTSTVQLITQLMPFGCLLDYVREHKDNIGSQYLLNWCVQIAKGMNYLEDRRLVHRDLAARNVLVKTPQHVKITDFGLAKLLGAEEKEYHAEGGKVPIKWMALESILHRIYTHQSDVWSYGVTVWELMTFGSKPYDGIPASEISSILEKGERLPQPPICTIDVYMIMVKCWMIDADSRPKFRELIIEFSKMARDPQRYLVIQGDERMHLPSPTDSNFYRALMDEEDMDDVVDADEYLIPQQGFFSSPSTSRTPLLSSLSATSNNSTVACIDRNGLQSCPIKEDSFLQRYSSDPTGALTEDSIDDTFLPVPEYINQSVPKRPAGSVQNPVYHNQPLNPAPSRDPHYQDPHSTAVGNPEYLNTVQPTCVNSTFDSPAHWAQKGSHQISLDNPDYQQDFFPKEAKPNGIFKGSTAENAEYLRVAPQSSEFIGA
T1 sequence (P29353 whole entry, further chain): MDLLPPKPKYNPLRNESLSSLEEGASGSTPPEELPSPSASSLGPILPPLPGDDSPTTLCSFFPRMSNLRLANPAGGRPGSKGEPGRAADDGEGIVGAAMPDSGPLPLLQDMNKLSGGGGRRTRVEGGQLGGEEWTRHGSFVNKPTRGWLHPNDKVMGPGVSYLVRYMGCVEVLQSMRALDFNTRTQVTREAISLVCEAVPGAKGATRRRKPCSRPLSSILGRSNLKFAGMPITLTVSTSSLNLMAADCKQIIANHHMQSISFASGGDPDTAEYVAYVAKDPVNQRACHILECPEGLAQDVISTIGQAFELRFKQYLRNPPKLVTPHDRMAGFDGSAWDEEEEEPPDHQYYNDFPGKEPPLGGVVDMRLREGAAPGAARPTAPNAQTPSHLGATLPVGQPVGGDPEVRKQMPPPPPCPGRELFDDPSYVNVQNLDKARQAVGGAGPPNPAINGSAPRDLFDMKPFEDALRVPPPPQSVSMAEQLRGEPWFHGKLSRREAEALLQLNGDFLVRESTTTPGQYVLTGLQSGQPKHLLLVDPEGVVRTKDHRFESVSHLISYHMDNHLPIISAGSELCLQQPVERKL

SMILES: COc1cc2ncnc(Nc3cccc(Cl)c3)c2cc1OC [AG1478]
- SIMPL western blot of EGFR/SHC1 interaction in cells (indirect readout of EGFR k): The spliced EGFR-SHC1 band observed by western blot diminished with increasing AG1478 concentration.
